“Also recorded” adds a separate entry of the source.
Tests used:
[1] = test system: PNN^+HEK cells; test: Removal of PNNs in vitro in PNN+HEK cell model (WFA staining); assay type: cell-based, human
Source text: A previously developed human embryonic kidney 293T (HEK) cell model, engineered to express the essential ECM components (hyaluronan synthase 3 (HAS-3) and HAPLN-1) required to induce the formation of a pericellular PNN-like structure (PNN^+HEK cells) (Kwok et al., 2010), was used to investigate the efficacy of PNNi in removing PNNs in vitro (FIG. 9A-I).

[2] = test system: locomotor function of intact rats; settings: female, Lister Hooded, rat, in vivo, 10 days
Source text: Firstly, the inventors questioned whether PNN removal throughout the CNS would affect normal sensation and motor functions. To investigate this, adult female Lister Hooded rats (n=11) were given ten days of oral PNNi treatment and subjected to routine behavioural testing.

[3] = test system: sensorimotor cortical slices; test: Field potentials and paired-pulse protocols in in vitro sensorimotor cortical slices; design: species or system rat
Description: FIG. […]): Forelimb (FL) shifts into hindlimb (HL) area of sensorimotor cortex (M1) after perineuronal net inhibitor (PNNi) and spinal cord injury (SCI) combination. PNNi and/or injury independently enhances cortical plasticity in spinal cord injured rats. Intracortical microstimulation (ICMS) was performed at stereotaxic coordinates within a right hemisphere craniotomy 5 mm rostral/caudal to bregma (B) (A) 11 weeks post-injury. Representative heat maps per group illustrate the percentage of animals for each stereotaxic coordinate where HL (B-C) or FL (D-E) movements were able to be elicited. The Lister Hooded rat baseline HL and FL cortical maps (dotted outlines in B-E) were compared to groups with mid-thoracic SCI (B, D) and/or long-term PNNi administration (C, E) to assess structural plasticity. HL movements were unable to be elicited after SCI (B-C). Measurements for FL analysis (K-N) are illustrated in J). After PNNi and/or SCI, FL movements were elicited in areas that previously elicited HL movements (see right of white dotted outline D-E). […] G: Plot of the average field potential amplitudes vs. stimulus intensity per group. Synaptic responses were elicited in cortical layers II/III by electrical stimuli via bipolar electrodes placed in cortical layers V/VI. Recordings were performed on cortical slice at the following coordinates: ML: 2-3 mm and AP 1.40-1.8 mm caudal to bregma. […]

[4] = test system: perineuronal nets (PNNs) in the ventral horn; test: Chronic PNNi treatment, immunohistochemistry of PNNs in the ventral horn 12 weeks post-injury; assay type: in vivo, rat; settings: T4-6 sections
Description: FIG. 15. Chronic PNNi treatment preferentially reduces expression of perineuronal nets (PNNs), labelled by key PNN components, in the ventral horn (VH). Rat spinal cord sections (T4-6) obtained at 12 weeks post-injury were stained and intensity was analysed in the VH. […] A transcardial perfusion (Gage et al., 2012) was then performed using sodium phosphate buffer (PB; 0.12 M sodium phosphate monobasic; 0.1 M NaOH; pH 7.4) followed by 4% paraformaldehyde (PFA; in PB; pH 7.4) for tissue fixation. The brain and spinal cord were dissected out, post-fixed in PFA (4%; 4° C.) overnight and cryoprotected in 30% sucrose solution (30% v/w sucrose in PB; 4° C.) until tissue saturation. The left brain hemisphere and appropriate spinal cord segments were excised and frozen in optimum temperature medium (OCT; Leica FSC 22 Frozen Section Media; Leica Biosystems) before storage at -80° C. until sectioning. […] Total number of neurones and the number of neurones surrounded by PNNs were quantified by two independent researchers, blinded to the study. Results were analysed with one-way ANOVA for statistical significance. […] Rat spinal cord sections (T4-6) obtained at 12 weeks post-injury were stained and intensity was analysed in the VH.

[5] = Nagy et al., 2015; cited from earlier work
[6] = test system: rats; settings: cited from earlier work
[7] = test system: mouse; settings: in vivo, po; cited from earlier work

Q: With `Cc1cc(=O)oc2cc(O)ccc12` [PNNi, 4-methylumbelliferone] as the molecule, how does the WFA-positive staining removed ([1]; two days of treatment, 0.5 mM or 1.0 mM) read?
A: Its WFA-positive staining removed is 86.4±4.47%.

Q: And the “staining intensity recovered, of baseline lectin binding” value ([1]; within three days post-treatment)?
A: The value was 43.6±14.6%.

Q: And the FL correct steps [2]?
A: The FL correct steps was 94.4±0.56%.

Q: And the FL missed steps [2]?
A: Its FL missed steps is 1.13±0.24%.

Q: And the FL slipped steps [2]?
A: Its FL slipped steps is 4.35±0.54%.

Q: What about the “HL correct stepping on the horizontal ladder” value [2] of the same molecule?
A: Its value is “approximately 92.7±0.82%”.

Q: What about the “HL misses on the horizontal ladder” value [2] of the same molecule?
A: Its value is 1.92±0.41%.

Q: What about the “HL slips on the horizontal ladder” value [2] of the same molecule?
A: Its value is 5.43±0.70%.

Q: And the intracortical synaptic transmission ([3]; combination of SCI and PNNi treatment)?
A: The intracortical synaptic transmission was “increased intracortical synaptic transmission; also recorded: elevated synaptic transmission”.

Q: What about the “paired-pulse inhibition (PPR)” value ([3]; sham animals, short and long interstimulus intervals) of the same molecule?
A: The value was “not altered”.

Q: What about the “number of PNNs labelled by ACAN and WFA in the ventral horn” value [4] of the same molecule?
A: The value was “partially decreases number of PNNs”.

Q: What about the “solubility in aqueous solution” value [5] of the same molecule?
A: The value was “near insoluble”.

Q: And the maximum tolerated dose ([6]; oral, rats)?
A: Its maximum tolerated dose is 6000 mg/kg.

Q: What about the “dose tolerated in rats” value ([6]; rat, in vivo) of the same molecule?
A: The value was “at least 200 mg/kg/day”.

Q: What about the “mortality in the chronic study” value ([6]; rats, 200 mg/kg/day and 40 mg/kg/day for three months) of the same molecule?
A: The value was “No mortality was reported”.

Q: What about the lethal dose [7] of the same molecule?
A: Its lethal dose is 7500 mg/kg.
